From patent publication US20070072831A1, “Integrase inhibitor compounds” (GILEAD SCIENCES, INC., priority 2005, published 2007) come the findings set out here.

SMILES strings stand for the structures.

One experiment relates to HIV-IIIb. As to the kind of experiment: Antiviral assay in MT-4 cells infected with HIV-IIIb. Type of experiment: cell-based. Conditions: MT4, 120 h; MT-4 cells, HIV-IIIb, 5 days; read-out: EC50 Range MT-4. An outline of the steps: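 MT-4 cells mixed with HIV-IIIb at m.o.i. 0.1 and added at once to 5-fold serial compound dilutions (7 concentrations, triplicate) in medium with 10% FBS. After 5 days at 37° C, cell viability read by CellTiter-Glo chemiluminescence.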

The target of another experiment is HIV integrase (Human immunodeficiency virus type 1 group M subtype B, UniProt P04585). The experiment is described as follows: biochemical.

Experimental for HIV integrase: Representative compounds of the invention were tested for biological activity by methods including anti-HIV assay, measuring inhibition of HIV-integrase strand transfer catalysis, and cytotoxicity.
HIV Integrase Assay (IC50 Determination)
The HIV Integrase assay is carried out in Reacti-Bind High Binding Capacity Streptavidin coated plates (Pierce # 15502) in 100 μl reactions. The wells of the plate are rinsed once with PBS. Each well is then coated at room temperature for 1 h with 100 μl of 0.14 μM Donor DNA with the following sequence:
After coating, the plate was washed twice with PBS. 3′processing of the Donor DNA is started by adding 80 μl of Integrase/buffer mixture (25 mM HEPES, pH 7.3, 12.5 mM DTT, 93.75 mM NaCl, 12.5 mM MgCl2, 1.25% Glycerol, 0.3125 uM integrase) to each well. 3′processing is allowed to proceed for 30 min at 37° C., after which, 10 μl of test compound and 10 μl of 2.5 uM DIG-labeled Target DNA with the following sequence:
are added to each well to allow strand transfer to proceed for 30 min at 37° C. The plate is then washed three times with 2×SSC for 5 min and rinsed once with PBS. For detection of integrated product, 100 μl of a 1/2000 dilution of HRP-conjugated anti-DIG antibody (Pierce #31468) are added to each well and incubated for 1 hour. The plate was then washed three times for 5 min each, with 0.05% Tween-20 in PBS. For signal development and amplification, 100 μl of SuperSignal ELISA Femto Substrate (Pierce #37075) are added to each well. Chemiluminescence (in relative light units) is read immediately at 425 nm in the SPECTRAmax GEMINI Microplate Spectrophotometer using the end point mode at 5 sec per well.
For IC50 determinations, eight concentrations of test compounds in a 1/2.2 dilution series are used.

`CN(c1c2c(c(O)c3ncccc13)C(=O)N(Cc1ccc(F)cc1F)C2)S(C)(=O)=O` [Compound 145, N-(7-(2,4-difluorobenzyl)-9-hydroxy-8-oxo-7,8-dihydro-6H-pyrrolo[3,4-g]quinolin-5-yl)-N-methylmethanesulfonamide]: the concentration giving a half-maximal response (EC50) (as a rule, the concentration needed to bring the measured effect to its halfway point) in the experiment with HIV-IIIb is below 60 nM. On HIV integrase, the IC50 (usually the point on the concentration scale where inhibition reaches its midpoint) was below 60 nM.

As to `CC(C)OC(=O)Oc1c2c(c(N(C)S(C)(=O)=O)c3cccnc13)CN(Cc1ccc(F)cc1)C2=O` [Compound 34, 7-(4-fluorobenzyl)-5-(N-methylmethan-5-ylsulfonamido)-8-oxo-7,8-dihydro-6H-pyrrolo[3,4-g]quinolin-9-yl isopropyl carbonate], in the experiment with HIV-IIIb, the EC50 was below 60 nM. The compound further displayed an IC50 at HIV integrase above 1000 nM.

Consider `CN(c1c2c(c(O)c3ncccc13)C(=O)N(Cc1ccc(F)cc1C#N)C2)S(C)(=O)=O` [Compound 100, N-(7-(2-cyano-4-fluorobenzyl)-9-hydroxy-8-oxo-7,8-dihydro-6H-pyrrolo[3,4-g]quinolin-5-yl)-N-methylmethanesulfonamide], for which the EC50 with HIV-IIIb lay within 60 to 1000 nM. Besides, the IC50 at HIV integrase is 60 to 1000 nM.

Turning to `CC(C)S(=O)(=O)N(C)c1c2c(c(O)c3ncccc13)C(=O)N(Cc1ccc(F)cc1)C2` [Compound 54, N-(7-(4-fluorobenzyl)-9-hydroxy-8-oxo-7,8-dihydro-6H-pyrrolo[3,4-g]quinolin-5-yl)-N-methylpropane-2-sulfonamide], the EC50 with HIV-IIIb is below 60 nM. The compound also yielded an IC50 against HIV integrase of 60 to 1000 nM.

Regarding `CCOC(=O)N(C)c1c2c(c(O)c3ncccc13)C(=O)N(Cc1ccc(F)cc1)C2C` (stereo not drawn) [Compound 114, ethyl 7-(4-fluorobenzyl)-9-hydroxy-6-methyl-8-oxo-7,8-dihydro-6H-pyrrolo[3,4-g]quinolin-5-yl(methyl)carbamate], in the experiment on HIV-IIIb, the half-maximal effective concentration (EC50) lay in the range of 60 to 1000 nM. The compound further gave an IC50 against HIV integrase of 60 to 1000 nM.

`CN(c1c2c(c(OCOC(=O)OC3CCC3)c3ncccc13)C(=O)N(Cc1ccc(F)cc1)C2)S(C)(=O)=O` [Compound 31, (7-(4-fluorobenzyl)-5-(N-methylmethan-5-ylsulfonamido)-8-oxo-7,8-dihydro-6H-pyrrolo[3,4-g]quinolin-9-yloxy)methyl cyclobutyl carbonate]: the EC50 in the experiment on HIV-IIIb was below 60 nM. On HIV integrase, this compound yielded an IC50 above 1000 nM.

`CN(c1c2c(c(O)c3ncccc13)C(=O)N(Cc1cc(Cl)cc(Cl)c1)C2)S(C)(=O)=O` [Compound 193, N-(7-(3,5-dichlorobenzyl)-9-hydroxy-8-oxo-7,8-dihydro-6H-pyrrolo[3,4-g]quinolin-5-yl)-N-methylmethanesulfonamide]: in the experiment with HIV-IIIb, the EC50 is below 60 nM. At HIV integrase, the IC50 is 60 to 1000 nM.

Consider `CCOC(=O)N(C)c1c2c(c(O)c3ncccc13)C(=O)N(Cc1ccc(F)cc1)C2(C)C` [Compound 115, ethyl 7-(4-fluorobenzyl)-9-hydroxy-6,6-dimethyl-8-oxo-7,8-dihydro-6H-pyrrolo[3,4-g]quinolin-5-yl(methyl)carbamate], for which the EC50 with HIV-IIIb was above 1000 nM. The compound also had an IC50 on HIV integrase of 60 to 1000 nM.

For `CN(Cc1ccccc1)S(=O)(=O)N(C)c1c2c(c(O)c3ncccc13)C(=O)N(Cc1ccc(F)cc1)C2` [Compound 135, N′-benzyl-N′-methyl-N-(7-(4-fluorobenzyl)-9-hydroxy-8-oxo-7,8-dihydro-6H-pyrrolo[3,4-g]quinolin-5-yl)-N-methylsulfamide], in the experiment on HIV-IIIb, the EC50 was in the range of 60 to 1000 nM. For the same compound, the IC50 against HIV integrase lay in the range of 60 to 1000 nM.

Turning to `CC(C)OC(=O)OCOc1c2c(c(N(C)S(C)(=O)=O)c3cccnc13)CN(Cc1ccc(F)cc1)C2=O` [Compound 33, (7-(4-fluorobenzyl)-5-(N-methylmethan-5-ylsulfonamido)-8-oxo-7,8-dihydro-6H-pyrrolo[3,4-g]quinolin-9-yloxy)methyl isopropyl carbonate], the EC50 in the experiment on HIV-IIIb is below 60 nM. This compound also yielded an IC50 against HIV integrase above 1000 nM.

Take `CN(c1c2c(c(O)c3ncccc13)C(=O)N(Cc1c(F)cc(F)cc1F)C2)S(C)(=O)=O` [Compound 187, N-(7-(2,4,6-trifluorobenzyl)-9-hydroxy-8-oxo-7,8-dihydro-6H-pyrrolo[3,4-g]quinolin-5-yl)-N-methylmethanesulfonamide]: in the experiment with HIV-IIIb, the EC50 is below 60 nM. At HIV integrase, the IC50 lay within 60 to 1000 nM.

As to `CN1CCCN(c2c3c(c(O)c4ncccc24)C(=O)N(Cc2ccc(F)cc2)C3)S1(=O)=O` [Compound 218], in the experiment on HIV-IIIb, the EC50 was below 60 nM. In addition, the IC50 against HIV integrase is below 60 nM.

On to `CN(c1c2c(c(OCOC(=O)OC3CCCC3)c3ncccc13)C(=O)N(Cc1ccc(F)cc1)C2)S(C)(=O)=O` [Compound 30, (7-(4-fluorobenzyl)-5-(N-methylmethan-5-ylsulfonamido)-8-oxo-7,8-dihydro-6H-pyrrolo[3,4-g]quinolin-9-yloxy)methyl cyclopentyl carbonate], for which, in the experiment with HIV-IIIb, the EC50 fell in the range of 60 to 1000 nM. Besides, the half-inhibitory concentration (IC50) at HIV integrase is above 1000 nM.

Take `CN(c1c2c(c(O)c3ncccc13)C(=O)N(Cc1ccc(F)cc1N)C2)S(C)(=O)=O` [Compound 103, N-(7-(2-amino-4-fluorobenzyl)-9-hydroxy-8-oxo-7,8-dihydro-6H-pyrrolo[3,4-g]quinolin-5-yl)-N-methylmethanesulfonamide]: the EC50 with HIV-IIIb was below 60 nM. The same compound came in with an IC50 against HIV integrase below 60 nM.

Regarding `CN(c1c2c(c(O)c3ncccc13)C(=O)N(Cc1ccc(Cl)c(Cl)c1)C2)S(C)(=O)=O` [Compound 197, N-(7-(3,4-dichlorobenzyl)-9-hydroxy-8-oxo-7,8-dihydro-6H-pyrrolo[3,4-g]quinolin-5-yl)-N-methylmethanesulfonamide], the EC50 in the experiment with HIV-IIIb is below 60 nM. In addition, the IC50 on HIV integrase is 60 to 1000 nM.

On to `COc1cc(F)ccc1CN1Cc2c(c(O)c3ncccc3c2N(C)S(C)(=O)=O)C1=O` [Compound 210, N-(7-(4-fluoro-2-methoxybenzyl)-9-hydroxy-8-oxo-7,8-dihydro-6H-pyrrolo[3,4-g]quinolin-5-yl)-N-methylmethanesulfonamide], for which the half-maximal effective concentration (EC50) in the experiment on HIV-IIIb is below 60 nM. The IC50 at HIV integrase was in the range of 60 to 1000 nM.

On to `CN(c1c2c(c(O)c3ncccc13)C(=O)N(Cc1ccc(Cl)cc1F)C2)S(C)(=O)=O` [Compound 189, N-(7-(4-chloro-2-fluorobenzyl)-9-hydroxy-8-oxo-7,8-dihydro-6H-pyrrolo[3,4-g]quinolin-5-yl)-N-methylmethanesulfonamide], for which the EC50 with HIV-IIIb is below 60 nM. The compound also gave an IC50 on HIV integrase of 60 to 1000 nM.

In the case of `CN(c1c2c(c(O)c3ncccc13)C(=O)N(Cc1ccc(F)cn1)C2)S(C)(=O)=O` [Compound 151, N-(7-((5-fluoropyridin-2-yl)methyl)-9-hydroxy-8-oxo-7,8-dihydro-6H-pyrrolo[3,4-g]quinolin-5-yl)-N-methylmethanesulfonamide], the EC50 in the experiment with HIV-IIIb is 60 to 1000 nM. Besides, the IC50 at HIV integrase is 60 to 1000 nM.

In the case of `CN(C(=O)N1CCOCC1)c1c2c(c(O)c3ncccc13)C(=O)N(Cc1ccc(F)cc1)C2` [Compound 173, N-(7-(4-fluorobenzyl)-9-hydroxy-8-oxo-7,8-dihydro-6H-pyrrolo[3,4-g]quinolin-5-yl)-N-methylmorpholine-4-carboxamide], the 50% effective concentration (EC50) with HIV-IIIb lay in the range of 60 to 1000 nM. For the same compound, the IC50 on HIV integrase was 60 to 1000 nM.

Take `O=C1c2c(c(N3CCCNC3=O)c3cccnc3c2O)CN1Cc1ccc(F)cc1` [Compound 222, 7-(4-fluorobenzyl)-9-hydroxy-5-(2-oxo-tetrahydropyrimidin-1(2H)-yl)-6,7-dihydropyrrolo[3,4-g]quinolin-8-one]: the EC50 in the experiment on HIV-IIIb is below 60 nM. The IC50 on HIV integrase fell in the range of 60 to 1000 nM.

`Nc1c2c(c(O)c3ncccc13)C(=O)N(Cc1ccc(F)cc1)C2=O` [Compound 8, 5-amino-7-(4-fluorobenzyl)-9-hydroxy-6H-pyrrolo[3,4-g]quinoline-6,8(7H)-dione]: the EC50 in the experiment on HIV-IIIb is above 1000 nM. Further, the IC50 against HIV integrase lay within 60 to 1000 nM.
